The text below walks through data of PubChem BioAssay (NCI).

What all share (assay): growth of human tumour cells (NCI), 48 h
Assay [1] has as its system SK-MEL-5 melanoma.
Assay [2] deals with UO-31 renal.
In assay [3] the test system is SK-MEL-28 melanoma.
The test system of assay [4] is HOP-92 NSCLC.
Assay [5] has as its system SK-OV-3 ovarian.
Assay [6] relates to KM12 colon.
For assay [7], the system named is U251 CNS.
Assay [8] concerns DU-145 prostate.
Assay [9] concerns HS 578T breast.
For assay [10], the system named is IGROV1 ovarian.

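These data come from cells grown in 96-well plates and exposed to compound for 48 hours at five concentrations. TGI: concentration producing complete growth inhibition.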 Some results are limits rather than exact numbers.

In the case of `O=C1CSC2=NC3=C(CSC/C3=C\c3ccccc3)C(c3ccccc3)N12` (configuration not stated), the TGI in [1], in [2], in [3], in [4], in [5] and in [6] was over 100 µM in each case. The TGI in assay [7], in [8], in assay [9] and in assay [10] was over 100 µM each time.
Take `COc1c2c(cc3c1C1(O)Cc4ccc5c(c4C[N+]1(C)CC3)OCO5)OCO2` (configuration not stated): the TGI in assay [1], in assay [3], in assay [4], in assay [5], in [6] and in [7] was over 100 µM throughout. For the same compound, the TGI in [8], in assay [9] and in assay [10] was over 100 µM in each case.
Regarding `COP(=O)(OC)/C(=C/c1cn(C(c2ccccc2)(c2ccccc2)c2ccccc2)cn1)NC=O`, the TGI in assay [1] is 27.5 µM; in assay [2], over 100 µM; in assay [3], 93.6 µM; in assay [4], 68 µM; in assay [5], 90.8 µM; in assay [6], over 100 µM. The TGI was 35.4 µM in assay [7], over 100 µM in [8], 43.2 µM in assay [9] and 44.1 µM in [10].
Turning to `CC(C)(C)OC(=O)Cn1ncn(NC(=O)Cc2ccccc2)c1=O`, the TGI in [1], in [2], in [3], in [4], in assay [5] and in [6] was over 10 µM throughout. In addition, the TGI in assay [7], in assay [8], in assay [9] and in assay [10] was over 10 µM in each case.
With `O=S(=O)(/N=C(\NO)Nc1ccc(Cl)cc1)c1ccccc1`, the TGI was 21.8 µM in assay [1]; 27.5 µM in assay [2]; 33.9 µM in [3]; 22.4 µM in assay [4]; over 100 µM in assay [5]; over 100 µM in assay [6]. Besides, the TGI in assay [7] was over 100 µM; in [8] it was over 60.3 µM; in assay [9], 34.6 µM; in assay [10] it was 62.4 µM.
For `C=CCc1cc(C(Cc2ccccc2)NC(C)C)cc(OCc2ccccc2)c1OCc1ccccc1` (configuration not stated), the TGI in assay [1] turned out to be 30.6 µM; in assay [2], 21.7 µM; in [3], 30.2 µM; in assay [4], 25.3 µM; in assay [5] it was 27 µM; in assay [6] it was 40.2 µM. Further, the TGI in assay [7] turned out to be 27.7 µM; in assay [8], 29.7 µM; in assay [9], 37.1 µM; in assay [10], 29.9 µM.
On to `CCCC1(CCC)c2cc(/C=N\O)ccc2-c2ccc(-c3ccc(C(C)(C)C)cc3)cc21`, for which the TGI was over 100 µM in assay [1]; over 100 µM in assay [2]; 92.6 µM in [3]; over 100 µM in assay [4]; over 100 µM in assay [5]; over 100 µM in [6]. For the same compound, the TGI in assay [8], in assay [9] and in assay [10] was over 100 µM throughout.
In the case of `C[N+]1(CCC[N+]2(C)CC3C4C=CC(CC4)C3C2)CCOCC1` (configuration not stated), the TGI in [1], in assay [2], in assay [3], in [4], in [5] and in [6] was over 100 µM in each case. In addition, the TGI in assay [7], in [8], in assay [9] and in assay [10] was over 100 µM throughout.
Regarding `Nc1c2c(nc3ccccc13)-c1ccccc1NCCC2`, the TGI was 28.6 µM in assay [1]; 88.3 µM in assay [2]; 51.1 µM in assay [3]; 65.6 µM in assay [4]; over 100 µM in assay [5]; over 100 µM in assay [6]. The TGI in assay [7], in assay [8], in [9] and in [10] was over 100 µM in each case.
For `c1ccc2c(c1)ccn1ccc3c4ccccc4nc-3c21`, the TGI was 1.71 µM in assay [1]; 2.24 µM in assay [2]; 1.8 µM in assay [3]; 4.44 µM in assay [4]; 2.9 µM in [5]; 1.92 µM in assay [6]. Besides, the TGI in assay [7] worked out at 1.47 µM; in [8], 1.72 µM; in assay [9], 4.25 µM; in assay [10], 2.8 µM.
As for `CCOC(=O)C(O)(C(=O)OCC)c1cc(C(C)(C)C)c(O)c(C(C)(C)C)c1`, the TGI in [1] is 32.9 µM; in assay [2], over 100 µM; in [3], over 100 µM; in assay [4], over 100 µM; in assay [5], over 100 µM; in assay [6] it was over 100 µM. For the same compound, the TGI in assay [7], in assay [8], in assay [9] and in [10] was over 100 µM throughout.
As for `N#CCN(CC#N)C1CC=CCC1N(CC#N)CC#N` (configuration not stated), the TGI in assay [1], in [2], in assay [4], in assay [5], in [6] and in assay [7] was over 100 µM in each case. The TGI in assay [8], in assay [9] and in [10] was over 100 µM each time.
Consider `O=[N+]([O-])/C(C(Cl)=C(Cl)Cl)=C(\N1CCCCC1)n1nnc2ccccc21`, for which the TGI in assay [1] is 32.7 µM; in assay [2], 34.3 µM; in assay [3] it was 48.3 µM; in assay [4] it was 39.6 µM; in [5] it was 68.2 µM; in assay [6], over 88 µM. The TGI in assay [7] stood at 31.1 µM; in [8] it was 37.7 µM; in [9] it was 81.8 µM; in [10] it was 34.1 µM.
`Cc1ccc2oc3c(c(Br)c(Br)n3C)c(=O)c2c1`: the TGI in assay [1] was over 100 µM; in assay [2], 27.5 µM; in [3], over 100 µM; in [4], 38.1 µM; in [6], over 100 µM; in assay [7], 35.8 µM. Also, the TGI was over 100 µM in [8], 65 µM in assay [9] and over 100 µM in [10].
With `CCOC(=O)C(C)c1nc2ccc(C(F)(F)F)cc2[nH]c1=O` (configuration not stated), the TGI in assay [1], in assay [2], in assay [3], in assay [4], in [5] and in assay [6] was over 100 µM throughout. In addition, the TGI in assay [7], in assay [8] and in [9] was over 100 µM in each case.
As for `C=CCOc1ccccc1C1(O)c2ccccc2C2=NCCCN21` (configuration not stated), the TGI in assay [1] was over 100 µM; in [2] it was over 100 µM; in assay [3] it was 52.2 µM; in [4], over 100 µM; in assay [5] it was over 100 µM; in assay [6] it was over 100 µM. In addition, the TGI is over 100 µM in assay [7], over 100 µM in [8], over 100 µM in [9] and 44.7 µM in [10].
As for `Cc1c(N2C(=O)/C(=C/c3ccc(N(CCC#N)CCC#N)cc3)N=C2c2ccccc2)c(=O)n(-c2ccccc2)n1C`, the TGI in assay [1], in [2], in assay [3], in [4], in assay [5] and in assay [6] was over 100 µM each time. The TGI in assay [7], in assay [8], in [9] and in [10] was over 100 µM each time.
On to `CC[C@H](C)C1=C(O)[N@+]2([O-])Oc3ccc(-c4c(O)c(O)c(-c5ccc(O)cc5)c(OC(C)=O)c4OC(C)=O)cc3O[C@]2([C@@H](C)CC)C(=O)N1O`, for which the TGI in [1] is over 50 µM; in assay [2] it was over 50 µM; in assay [3], over 50 µM; in [4] it was 32.1 µM; in [5], 48 µM; in assay [6], over 50 µM. Moreover, the TGI was over 50 µM in assay [7], over 50 µM in [8], over 50 µM in assay [9] and 28.2 µM in [10].
On to `N#Cc1c(-c2ccc(Cl)cc2)c2c(N=Nc3c(O)ccc4ccccc34)[nH]nc2[nH]c1=O`, for which the TGI in assay [1] stood at 1.62 µM; in assay [2] it was 1.05 µM; in [4], 0.865 µM; in assay [5], 1.58 µM; in assay [7], 1.56 µM; in assay [8], 1.07 µM. Moreover, the TGI in assay [9] stood at 3.96 µM; in assay [10], 1.14 µM.
With `CN(C(=O)Cc1cc(Cl)c(Cl)cc1NC(=O)CN)[C@H]1CCCC[C@@H]1N1CCCC1`, the TGI in assay [2] was over 100 µM; in assay [4] it was over 100 µM; in assay [5] it was over 100 µM; in [6] it was over 100 µM; in assay [7] it was 32.6 µM; in assay [8], over 100 µM. Besides, the TGI in assay [9] is 64 µM; in [10] it was over 100 µM.
Take `NC(=O)c1c(NC=O)ncn1C1OCC(O)C(O)C1O` (configuration not stated): the TGI in [1], in [2], in assay [4], in assay [5], in [6] and in [7] was over 100 µM in each case. Moreover, the TGI in [8], in [9] and in [10] was over 100 µM in each case.
For the compound `CN(C)c1cccc2c1C(=O)C=CC21CCc2ccc(N(C)C)c3c(N(C)C)ccc1c23` (configuration not stated), the TGI amounted to 30.1 µM in assay [1]; 24.1 µM in assay [2]; 30.4 µM in [3]; 41.8 µM in assay [4]; 27 µM in [5]; 30.2 µM in [6]. The TGI turned out to be 17.5 µM in assay [8], 66.8 µM in assay [9] and 31.2 µM in assay [10].
As to `CCN(CC)c1ccc2cc(C(=O)Nc3ccc(C)cc3)c(=N)oc2c1`, the TGI in [1], in [3], in assay [4], in assay [5], in assay [6] and in assay [7] was over 100 µM throughout. The TGI in assay [8], in assay [9] and in assay [10] was over 100 µM in each case.
Take `Cc1ccc(O)c(C2=CC(c3cccc(Br)c3)SC(N)=N2)c1` (configuration not stated): the TGI in assay [1] was determined as 32 µM; in assay [2] it was 65.3 µM; in assay [4], 60.4 µM; in assay [5], 75.6 µM; in assay [6], 82.3 µM; in assay [7], 33.4 µM. The TGI in assay [8] is over 100 µM; in assay [9], 45 µM; in assay [10] it was 46.5 µM.
Regarding `COc1cc2ccc1OCc1cccc(n1)COc1ccc(cc1OC)C=NCCNCCNCCN=C2`, the TGI in [1], in assay [2], in assay [4], in assay [5], in [6] and in assay [7] was over 100 µM throughout. Further, the TGI in [8], in [9] and in [10] was over 100 µM each time.
With `C(=Nc1ccc(-c2nc3ccccc3[nH]2)cc1)c1ccco1`, the TGI in assay [1], in assay [2], in assay [3], in [4], in [6] and in [8] was over 100 µM each time. Also, the TGI in assay [9] and in [10] was over 100 µM throughout.
Regarding `CCOC(=O)c1c(N2CCCC2)ncn(C)c1=S`, the TGI in assay [1], in [2], in [3], in assay [4], in assay [6] and in assay [7] was over 100 µM in each case. For the same compound, the TGI in assay [8], in assay [9] and in [10] was over 100 µM in each case.
Turning to `COc1cccc2cc(C(C)=O)c(=O)oc12`, the TGI in assay [1], in assay [2], in [3], in [4], in assay [6] and in assay [7] was over 100 µM in each case. In addition, the TGI in assay [8], in assay [9] and in assay [10] was over 100 µM throughout.
